Where two headings read alike, the source gives them in different places.

These results are taken from publication PMC3909116 (PLoS ONE, 2014).

For one series, the system named is M. tuberculosis. The settings on record: against M. tuberculosis; cited from earlier work.
For a further series, the system named is M. tuberculosis H37Rv. The format is in vivo.
The nature of the next series: in vivo. The arrangement: species or system Balb/c mice. The note with it: male, Balb/c, mouse, po, 30 mg/kg. As for the experimental part: Samples were analyzed by LC-MS.
(A) Mouse survival curves from maximum tolerated dose study. All mice (n = 5) received one dose daily 6 times weekly for 4 weeks. 80% aqueous propylene glycol, (vehicle control).
Half-life and sequential exposure time of drug in serum is critical for its in vivo efficacious activity.

Usually MIC stands for the smallest concentration in the dilution series that meets the test's criterion for growth inhibition. For the molecule `C[C@]1(COc2ccc(N3CCC(Oc4ccc(OC(F)(F)F)cc4)CC3)cc2)Cn2cc([N+](=O)[O-])nc2O1` [Delamanid], the MIC in the series with M. tuberculosis is 0.006 to 0.024 µg/mL.
`NNC(=O)c1ccncc1` [INH, isoniazid]: the MIC in the series on M. tuberculosis was 0.3 µM. In addition, in the series on M. tuberculosis H37Rv (relative to counts at initiation of chemotherapy (4.26 log10), Balb/c mice, oral once daily 6 times per week for 4 weeks, ND-09759 30 mg/kg, INH 25 mg/kg, RMP 20 mg/kg), the “reduction of M. tuberculosis bacterial load in the spleen” value worked out at 0.38 log10. The “reduction of M. tuberculosis bacterial load in the lung” value in the series on M. tuberculosis H37Rv (relative to counts at initiation of chemotherapy (5.18 log10), Balb/c mice, oral once daily 6 times per week for 4 weeks, ND-09759 30 mg/kg, INH 25 mg/kg, RMP 20 mg/kg) is recorded as 0.27 log10.
For the molecule `CC(=O)NC[C@H]1CN(c2ccc(N3CCOCC3)c(F)c2)C(=O)O1` [Linezolid], in the series with M. tuberculosis, the MIC is 0.25 to 1 µg/mL.
Broadly, the AUC(0-t) is exposure summed from dosing to a finite time, without extrapolation to infinity. The Cmax is the peak of the concentration-time curve. As a reminder, the half-life is how long it takes for the measured level to halve. In “in vivo”, `Cc1ccn2c(C(=O)NCc3ccc(Oc4ccc(Cl)cc4)cc3)c(C)nc2c1` [ND-09759, N-(4-(4-chlorophenoxy)benzyl)-2,7-dimethylimidazo[1,2-a]pyridine-3-carboxamide] had an area under the curve AUC(0-t) of 22200 ng·h/mL, a Cmax of 2900 ng/mL and a half-life of 20.1 h.
In the case of `O=[N+]([O-])c1cn2c(n1)OC[C@@H](OCc1ccc(OC(F)(F)F)cc1)C2` [PA-824], the MIC in the series on M. tuberculosis was 0.015 to 0.25 µg/mL.
Take `CO[C@H]1/C=C/O[C@@]2(C)Oc3c(C)c(O)c4c(O)c(c(/C=N/N5CCN(C)CC5)c(O)c4c3C2=O)NC(=O)/C(C)=C\C=C\[C@H](C)[C@H](O)[C@@H](C)[C@@H](O)[C@@H](C)[C@H](OC(C)=O)[C@@H]1C` [RMP, rifampicin]: in the series on M. tuberculosis, the MIC is 0.003 µM. Further, in the series with M. tuberculosis H37Rv (in vivo), the “reduction of M. tuberculosis bacterial load in the lung” value is given as 0.23 log10 and the “reduction of M. tuberculosis bacterial load in the spleen” value is 0.35 log10.
For `CC(C)=CCC/C(C)=C/CNCCNC1C2CC3CC(C2)CC1C3` (centres unmarked) [SQ109], the MIC with M. tuberculosis was 0.7 to 1.56 µM.
Regarding `COc1nc2ccc(Br)cc2cc1[C@@H](c1ccccc1)[C@@](O)(CCN(C)C)c1cccc2ccccc12` [TMC 207], the MIC in the series with M. tuberculosis is recorded as 0.030−0.120 µg/ml.
